Test results published in the supplement of paper PMC10307832.

Experiments:
Experiment in all cases: relative viability (nuclei count vs DMSO), 5 days (fraction); higher = more cells survive
[1] = compound: CN1C=C(C2=CC=CC=C21)/C=C\3/C4=C(C=CC=N4)NC3=O + Nc1nc2[nH]cc(CCc3ccc(C(=O)N[C@@H](CCC(=O)O)C(=O)O)cc3)c2c(=O)[nH]1 [Pemetrexed] (partner 0.2 µM)
Summary of the method: (§1)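 Relative viability was taken as the ratio of nuclei in treated wells to nuclei in vehicle wells. Lung cancer cell lines in 1536-well plates received compounds by pin tool one day after seeding, either one drug alone or a fixed anchor-drug dose plus five library-drug doses (not always all listed) in √10 steps. Nuclei were counted on 4× images after 5 days of treatment, and values are medians of duplicate plates.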

Trametinib + Alpelisib = compound: CC(=O)Nc1cccc(-n2c(=O)n(C3CC3)c(=O)c3c(Nc4ccc(I)cc4F)n(C)c(=O)c(C)c32)c1 [Trametinib] + Cc1nc(NC(=O)N2CCC[C@H]2C(N)=O)sc1-c1ccnc(C(C)(C)C(F)(F)F)c1 [Alpelisib] (partner 2 µM)
Summary of the method: as §1

[2] = compound: CN1C=C(C2=CC=CC=C21)/C=C\3/C4=C(C=CC=N4)NC3=O + O=C(CCCCCCC(=O)Nc1ccccc1)NO [Vorinostat] (partner 1 µM)
Summary of the method: as §1

Trametinib + Bortezomib = compound: CC(=O)Nc1cccc(-n2c(=O)n(C3CC3)c(=O)c3c(Nc4ccc(I)cc4F)n(C)c(=O)c(C)c32)c1 [Trametinib] + CC(C)C[C@H](NC(=O)[C@H](Cc1ccccc1)NC(=O)c1cnccn1)B(O)O [Bortezomib] (partner 0.002 µM)
Summary of the method: as §1

## NCI-H358
[1]; first compound 0.02 µM
  relative viability: 0.172
[1]; first compound 0.06325 µM
  relative viability: 0.15
[1]; first compound 0.2 µM
  relative viability: 0.167
[1]; first compound 0.6325 µM
  relative viability: 0.172
[1]; first compound 2 µM
  relative viability: 0.164
Trametinib + Alpelisib; first compound 0.0025 µM
  relative viability: 0.563
Trametinib + Alpelisib; first compound 0.007906 µM
  relative viability: 0.373
Trametinib + Alpelisib; first compound 0.025 µM
  relative viability: 0.277
Trametinib + Alpelisib; first compound 0.07906 µM
  relative viability: 0.269
Trametinib + Alpelisib; first compound 0.25 µM
  relative viability: 0.248
[2]; first compound 0.02 µM
  relative viability: 0.764
[2]; first compound 0.06325 µM
  relative viability: 0.535
[2]; first compound 0.2 µM
  relative viability: 0.672
[2]; first compound 0.6325 µM
  relative viability: 1.21
[2]; first compound 2 µM
  relative viability: 0.51

## ChaGo-K-1
Trametinib + Bortezomib; first compound 0.0025 µM
  relative viability: 1.12
Trametinib + Bortezomib; first compound 0.007906 µM
  relative viability: 0.871
Trametinib + Bortezomib; first compound 0.025 µM
  relative viability: 1.05
Trametinib + Bortezomib; first compound 0.07906 µM
  relative viability: 0.713
Trametinib + Bortezomib; first compound 0.25 µM
  relative viability: 0.476
[1]; first compound 0.02 µM
  relative viability: 0.252
[1]; first compound 0.06325 µM
  relative viability: 0.255
[1]; first compound 0.2 µM
  relative viability: 0.241
[1]; first compound 0.6325 µM
  relative viability: 0.269
[1]; first compound 2 µM
  relative viability: 0.245
[2]; first compound 0.02 µM
  relative viability: 0.71
[2]; first compound 0.06325 µM
  relative viability: 0.772
[2]; first compound 0.2 µM
  relative viability: 0.627
[2]; first compound 0.6325 µM
  relative viability: 0.759
[2]; first compound 2 µM
  relative viability: 0.769

## NCI-H727
Trametinib + Bortezomib; first compound 0.0025 µM
  relative viability: 0.663
Trametinib + Bortezomib; first compound 0.007906 µM
  relative viability: 0.422
Trametinib + Bortezomib; first compound 0.025 µM
  relative viability: 0.272
Trametinib + Bortezomib; first compound 0.07906 µM
  relative viability: 0.257
Trametinib + Bortezomib; first compound 0.25 µM
  relative viability: 0.277
Trametinib + Alpelisib; first compound 0.0025 µM
  relative viability: 0.312
Trametinib + Alpelisib; first compound 0.007906 µM
  relative viability: 0.211
Trametinib + Alpelisib; first compound 0.025 µM
  relative viability: 0.227
Trametinib + Alpelisib; first compound 0.07906 µM
  relative viability: 0.172
Trametinib + Alpelisib; first compound 0.25 µM
  relative viability: 0.183
[2]; first compound 0.02 µM
  relative viability: 1.02
[2]; first compound 0.06325 µM
  relative viability: 1.21
[2]; first compound 0.2 µM
  relative viability: 0.903
[2]; first compound 0.6325 µM
  relative viability: 1.23
[2]; first compound 2 µM
  relative viability: 1.35

## A549
Trametinib + Alpelisib; first compound 0.0025 µM
  relative viability: 0.6
Trametinib + Alpelisib; first compound 0.007906 µM
  relative viability: 0.37
Trametinib + Alpelisib; first compound 0.025 µM
  relative viability: 0.206
Trametinib + Alpelisib; first compound 0.07906 µM
  relative viability: 0.158
Trametinib + Alpelisib; first compound 0.25 µM
  relative viability: 0.0675

## NCI-H1563
Trametinib + Bortezomib; first compound 0.0025 µM
  relative viability: 0.854
Trametinib + Bortezomib; first compound 0.007906 µM
  relative viability: 0.794
Trametinib + Bortezomib; first compound 0.025 µM
  relative viability: 0.824
Trametinib + Bortezomib; first compound 0.07906 µM
  relative viability: 0.682
Trametinib + Bortezomib; first compound 0.25 µM
  relative viability: 0.616
[1]; first compound 0.02 µM
  relative viability: 0.827
[1]; first compound 0.06325 µM
  relative viability: 0.694
[1]; first compound 0.2 µM
  relative viability: 0.703
[1]; first compound 0.6325 µM
  relative viability: 0.665
[1]; first compound 2 µM
  relative viability: 0.752
Trametinib + Alpelisib; first compound 0.0025 µM
  relative viability: 0.94
Trametinib + Alpelisib; first compound 0.007906 µM
  relative viability: 0.985
Trametinib + Alpelisib; first compound 0.025 µM
  relative viability: 0.992
Trametinib + Alpelisib; first compound 0.07906 µM
  relative viability: 0.968
Trametinib + Alpelisib; first compound 0.25 µM
  relative viability: 0.628

## NCI-H1703
Trametinib + Bortezomib; first compound 0.0025 µM
  relative viability: 0.294
Trametinib + Bortezomib; first compound 0.007906 µM
  relative viability: 0.263
Trametinib + Bortezomib; first compound 0.025 µM
  relative viability: 0.372
Trametinib + Bortezomib; first compound 0.07906 µM
  relative viability: 0.369
Trametinib + Bortezomib; first compound 0.25 µM
  relative viability: 0.287
Trametinib + Alpelisib; first compound 0.0025 µM
  relative viability: 0.367
Trametinib + Alpelisib; first compound 0.007906 µM
  relative viability: 0.373
Trametinib + Alpelisib; first compound 0.025 µM
  relative viability: 0.28
Trametinib + Alpelisib; first compound 0.07906 µM
  relative viability: 0.306
Trametinib + Alpelisib; first compound 0.25 µM
  relative viability: 0.29

## NCI-H1299
Trametinib + Bortezomib; first compound 0.0025 µM
  relative viability: 1.04
Trametinib + Bortezomib; first compound 0.007906 µM
  relative viability: 0.992
Trametinib + Bortezomib; first compound 0.025 µM
  relative viability: 0.971
Trametinib + Bortezomib; first compound 0.07906 µM
  relative viability: 0.955
Trametinib + Bortezomib; first compound 0.25 µM
  relative viability: 0.739
Trametinib + Alpelisib; first compound 0.0025 µM
  relative viability: 1.04
Trametinib + Alpelisib; first compound 0.007906 µM
  relative viability: 1.08
Trametinib + Alpelisib; first compound 0.025 µM
  relative viability: 0.911
Trametinib + Alpelisib; first compound 0.07906 µM
  relative viability: 0.799
Trametinib + Alpelisib; first compound 0.25 µM
  relative viability: 0.744

## NCI-H522
[1]; first compound 0.02 µM
  relative viability: 0.743
[1]; first compound 0.06325 µM
  relative viability: 0.775
[1]; first compound 0.2 µM
  relative viability: 0.878
[1]; first compound 0.6325 µM
  relative viability: 1.1
[1]; first compound 2 µM
  relative viability: 0.998
[2]; first compound 0.02 µM
  relative viability: 0.734
[2]; first compound 0.06325 µM
  relative viability: 0.893
[2]; first compound 0.2 µM
  relative viability: 0.84
[2]; first compound 0.6325 µM
  relative viability: 0.899
[2]; first compound 2 µM
  relative viability: 0.953

## NCI-H1648
[1]; first compound 0.02 µM
  relative viability: 0.729
[1]; first compound 0.06325 µM
  relative viability: 0.777
[1]; first compound 0.2 µM
  relative viability: 0.922
[1]; first compound 0.6325 µM
  relative viability: 0.691
[1]; first compound 2 µM
  relative viability: 0.739
[2]; first compound 0.02 µM
  relative viability: 0.557
[2]; first compound 0.06325 µM
  relative viability: 0.391
[2]; first compound 0.2 µM
  relative viability: 0.425
[2]; first compound 0.6325 µM
  relative viability: 0.327
[2]; first compound 2 µM
  relative viability: 0.64

## NCI-H1944
[1]; first compound 0.02 µM
  relative viability: 0.549
[1]; first compound 0.06325 µM
  relative viability: 0.558
[1]; first compound 0.6325 µM
  relative viability: 0.617
[1]; first compound 2 µM
  relative viability: 0.652
Trametinib + Alpelisib; first compound 0.0025 µM
  relative viability: 0.716
Trametinib + Alpelisib; first compound 0.007906 µM
  relative viability: 0.603
Trametinib + Alpelisib; first compound 0.025 µM
  relative viability: 0.532
Trametinib + Alpelisib; first compound 0.07906 µM
  relative viability: 0.463
Trametinib + Alpelisib; first compound 0.25 µM
  relative viability: 0.325
[2]; first compound 0.02 µM
  relative viability: 0.471
[2]; first compound 0.06325 µM
  relative viability: 0.5
[2]; first compound 0.6325 µM
  relative viability: 0.568
[2]; first compound 2 µM
  relative viability: 0.528

## NCI-H2170
[1]; first compound 0.02 µM
  relative viability: 0.261
[1]; first compound 0.06325 µM
  relative viability: 0.254
[1]; first compound 0.2 µM
  relative viability: 0.292
[1]; first compound 0.6325 µM
  relative viability: 0.264
[1]; first compound 2 µM
  relative viability: 0.257
Trametinib + Alpelisib; first compound 0.0025 µM
  relative viability: 0.828
Trametinib + Alpelisib; first compound 0.007906 µM
  relative viability: 0.721
Trametinib + Alpelisib; first compound 0.07906 µM
  relative viability: 0.669
Trametinib + Alpelisib; first compound 0.25 µM
  relative viability: 0.638
[2]; first compound 0.02 µM
  relative viability: 0.746
[2]; first compound 0.06325 µM
  relative viability: 0.762
[2]; first compound 0.2 µM
  relative viability: 0.747
[2]; first compound 0.6325 µM
  relative viability: 0.614
[2]; first compound 2 µM
  relative viability: 0.758

## NCI-H1793
[1]; first compound 0.02 µM
  relative viability: 0.876
[1]; first compound 0.06325 µM
  relative viability: 1.11
[1]; first compound 0.2 µM
  relative viability: 0.73
[1]; first compound 0.6325 µM
  relative viability: 0.785
[1]; first compound 2 µM
  relative viability: 0.988
Trametinib + Alpelisib; first compound 0.0025 µM
  relative viability: 0.578
Trametinib + Alpelisib; first compound 0.007906 µM
  relative viability: 0.457
Trametinib + Alpelisib; first compound 0.025 µM
  relative viability: 0.28
Trametinib + Alpelisib; first compound 0.07906 µM
  relative viability: 0.425
Trametinib + Alpelisib; first compound 0.25 µM
  relative viability: 0.29
[2]; first compound 0.02 µM
  relative viability: 0.774
[2]; first compound 0.06325 µM
  relative viability: 0.733
[2]; first compound 0.2 µM
  relative viability: 0.522
[2]; first compound 0.6325 µM
  relative viability: 0.681
[2]; first compound 2 µM
  relative viability: 0.704
